Measured values: patent US10669268B2, “Bicyclic derivatives” (Hoffmann-La Roche Inc., priority 2012, dated 2020)

Target: ATX (human His-tagged) (Homo sapiens (Human), UniProt Q13822)
Test: Human ATX enzyme inhibition assay (fluorescence quenching, MR121 substrate)
Type: biochemical
Details: 30 nM ATX, 1 μM MR121 substrate, 30° C., pH 8.0
How it was run: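 Tris-HCl buffer at pH 8.0 contained 140 mM NaCl, 5 mM KCl, 1 mM each CaCl2 and MgCl2, and 0.01% Triton X-100. The MR121 substrate (1 μM final) was incubated with enzyme for 15 min at 30 °C, and activity was read by fluorescence quenching.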

Row | IC50 [nM] | Compound
1 | 5 | O=C(c1ccc2[nH]nnc2c1)N1C[C@H]2CN(C(=O)c3cc(OCC(F)(F)F)c4ccccc4n3)C[C@@H]2C1 [Example 19.38, ((3aS,6aS)-5-(1H-benzo[d][1,2,3]triazole-5-carbonyl)hexahydropyrrolo[3,4-c]pyrrol-2(1H)-yl)(4-(2,2,2-trifluoroethoxy)quinolin-2-yl)methanone]
2 | 3 | N#Cc1ccc(/C=C/C(=O)N2CC[C@@H]3CN(C(=O)c4ccc5[nH]nnc5c4)C[C@@H]3CC2)c(F)c1 [Example 15.34]
3 | 5 | CC(C)(C)c1cc(Br)ccc1OCC(=O)N1C[C@@H]2CN(C(=O)c3ccc4[nH]nnc4c3)C[C@H]2C1 [Example 19.30, 1-[(3aS,6aS)-5-(1H-benzotriazole-5-carbonyl)-1,3,3a,4,6,6a-hexahydropyrrolo[3,4-c]pyrrol-2-yl]-2-(4-bromo-2-tert-butylphenoxy)ethanone]
4 | 15 | O=C(/C=C/c1ccc([S+]([O-])C(F)(F)F)cc1)N1CC[C@@H]2CN(C(=O)c3ccc4[nH]nnc4c3)C[C@@H]2CC1 (stereo partly drawn) [Example 16, (E)-1-((3aR,8aS)-2-(1H-benzo[d][1,2,3]triazole-5-carbonyl)octahydropyrrolo[3,4-d]azepin-6(7H)-yl)-3-(4-(trifluoromethylsulfinyl)phenyl)prop-2-en-1-one]
5 | 130 | O=C(/C=C/c1ccc(OC(F)(F)F)cc1)N1C[C@@H]2CN(C(=O)C3CCc4[nH]nnc4C3)C[C@@H]2C1 (some centres unmarked) [Example 15.43]
6 | 17 | O=C(/C=C/c1ccc(Cl)cc1F)N1C[C@@H]2CN(C(=O)c3ccc4[nH]nnc4c3)C[C@H]2C1 [Example 15.41]
7 | 1600 | O=C(/C=C/c1ccc(OC(F)(F)F)cc1)N1C[C@@H]2CN(C(=O)NCc3c[nH]nn3)C[C@@H]2C1 [Example 9.02]
8 | 186 | O=C(/C=C/c1ccc(OC(F)(F)F)cc1)N1CC[C@@H]2CN(C(=O)N3CCc4[nH]ncc4C3)C[C@@H]2CC1 [Example 8.02]
9 | 21 | O=C(CCc1ccc(-c2ccccc2)cn1)N1C[C@@H]2CN(C(=O)c3ccc4[nH]nnc4c3)C[C@H]2C1 [Example 17.10, 1-[(3aR,6aR)-5-(1H-benzotriazole-5-carbonyl)-hexahydro-pyrrolo[3,4-c]pyrrol-2-yl]-3-(5-phenyl-pyridin-2-yl)-propan-1-one]
10 | 6 | O=C(CCc1ccc(OC(F)(F)F)cc1)N1C[C@@H]2CN(C(=O)c3ccc4[nH]nnc4c3)C[C@H]2C1 [Example 15.44]
11 | 10 | O=C(c1cnc(OCC(F)(F)F)c(C2CC2)c1)N1C[C@@H]2CN(C(=O)c3ccc4[nH]nnc4c3)C[C@H]2C1 [Example 19.42, ((3aS,6aS)-5-(1H-benzo[d][1,2,3]triazole-5-carbonyl)hexahydropyrrolo[3,4-c]pyrrol-2(1H)-yl)(5-cyclopropyl-6-(2,2,2-trifluoroethoxy)pyridin-3-yl)methanone]
12 | 6 | O=C(/C=C/c1ccc(OC(F)(F)F)cc1)N1C[C@@H]2CN(C(=O)c3ccc4[nH]nnc4c3)C[C@H]2C1 [Example 15.12]
13 | 8 | O=C(CCc1ccc(OC(F)(F)F)cc1F)N1C[C@@H]2CN(C(=O)c3ccc4[nH]nnc4c3)C[C@H]2C1 [Example 17.04, 1-[(3aR,6aR)-5-(1H-benzotriazole-5-carbonyl)-hexahydro-pyrrolo[3,4-c]pyrrol-2-yl]-3-(2-fluoro-4-trifluoromethoxy-phenyl)-propan-1-one]
14 | 9 | O=C(OCc1cc(Cl)cc(Cl)c1)N1CC[C@@H]2CN(C(=O)c3ccc4[nH]nnc4c3)C[C@H]2C1 (single isomer, unassigned) [Example 11B, trans-3,5-dichlorobenzyl 2-(1H-benzo[d][1,2,3]triazole-5-carbonyl)-hexahydro-1H-pyrrolo[3,4-c]pyridine-5(6H)-carboxylate]
15 | 74 | CN(Cc1cnn[nH]1)C(=O)N1C[C@H]2CCN(C(=O)/C=C/c3ccc(OC(F)(F)F)cc3)CC[C@H]2C1 [Example 9.07, (3aR,8aS)-N-((1H-1,2,3-triazol-5-yl)methyl)-N-methyl-6-((E)-3-(4-(trifluoromethoxy)phenyl)-acryloyl)octahydro-pyrrolo[3,4-d]azepine-2(1H)-carboxamide]
16 | 62 | O=C(/C=C/c1ccc(F)cc1)N1CC[C@@H]2CN(C(=O)c3ccc4[nH]nnc4c3)C[C@@H]2CC1 [Example 15.14]
17 | 2 | O=C(/C=C/c1ccc(OC(F)(F)F)cc1)N1CC[C@@H]2CN(C(=O)N3CCc4[nH]nnc4C3)C[C@@H]2CC1 [Example 8.01]
18 | 60 | O=C(/C=C/c1ccc(-c2cccnc2)cc1)N1C[C@@H]2CN(C(=O)c3ccc4[nH]nnc4c3)C[C@H]2C1 [Example 15.80, (E)-1-[(3aR,6aR)-5-(1H-benzotriazole-5-carbonyl)-hexahydro-pyrrolo[3,4-c]pyrrol-2-yl]-3-(4-pyridin-3-yl-phenyl)-prop-2-en-1-one]

The next lines start with the compound.

Row | Compound | IC50 [nM]
19 | O=C(OCc1ccc(C(F)(F)F)cc1F)N1C[C@@H]2CN(C(=O)c3ccc4[nH]nnc4c3)C[C@H]2C1 [Example 4.56, (3aS,6aS)-5-(1H-benzotriazole-5-carbonyl)-hexahydro-pyrrolo[3,4-c]pyrrole-2-carboxylic acid 2-fluoro-4-trifluoromethyl-benzyl ester] | 9
20 | CS(=O)(=O)c1cc(Cl)cc(COC(=O)N2CC[C@@H]3CN(C(=O)c4ccc5[nH]nnc5c4)C[C@H]3C2)c1 (relative stereo) [Example 1.23, trans-2-(1H-benzotriazole-5-carbonyl)-octahydro-pyrrolo[3,4-c]pyridine-5-carboxylic acid 3-chloro-5-methanesulfonyl-benzyl ester] | 58
21 | O=C(OCCC1C2CC3CC(C2)CC1C3)N1C[C@@H]2CN(C(=O)c3ccc4[nH]nnc4c3)C[C@@H]2C1 (stereo partly drawn) [Example 4.16, (3aS,6aR)-5-(1H-benzotriazole-5-carbonyl)-hexahydro-pyrrolo[3,4-c]pyrrole-2-carboxylic acid 2-adamantan-2-yl-ethyl ester] | 398
22 | O=C(CCc1ccc(OC(F)(F)F)cc1)N1C[C@@H]2CN(C(=O)c3ccc4[nH]nnc4c3F)C[C@H]2C1 [Example 1.59, 1-[(3aR,6aR)-5-(4-fluoro-1H-benzotriazole-5-carbonyl)-hexahydro-pyrrolo[3,4-c]pyrrol-2-yl]-3-(4-trifluoromethoxy-phenyl)-propan-1-one] | 6
23 | CS(=O)(=O)c1cc(COC(=O)N2C[C@H]3CCN(C(=O)c4ccc5[nH]nnc5c4)C[C@@H]3C2)cc(C(F)(F)F)c1 (relative stereo) [Example 4.01, trans-5-(1H-benzotriazole-5-carbonyl)-octahydro-pyrrolo[3,4-c]pyridine-2-carboxylic acid 3-methanesulfonyl-5-trifluoromethyl-benzyl ester] | 41
24 | O=C(OCC1C[C@H]2CC[C@@H]1C2)N1C[C@@H]2CN(C(=O)c3ccc4[nH]nnc4c3)C[C@@H]2C1 (stereo partly drawn) [Example 4.32, (3aS,6aR)-5-(1H-benzotriazole-5-carbonyl)-hexahydro-pyrrolo[3,4-c]pyrrole-2-carboxylic acid (1R,4S)-1-bicyclo[2.2.1]hept-2-ylmethyl ester] | 3850
25 | CC(C)(Cc1cccc(Cl)c1)C(=O)N1CC[C@@H]2CN(C(=O)c3ccc4[nH]nnc4c3)C[C@@H]2CC1 [Example 1.14, 1-((3aR,8aS)-2-(1H-benzo[d][1,2,3]triazole-5-carbonyl)octahydropyrrolo[3,4-d]azepin-6(7H)-yl)-3-(3-chlorophenyl)-2,2-dimethylpropan-1-one] | 810
26 | O=C(OCc1cc(Cl)cc(Cl)c1)N1C[C@H]2CCN(C(=O)c3ccc4[nH]nnc4c3)C[C@@H]2C1 (relative stereo) [Example 12A, trans-3,5-dichlorobenzyl 5-(1H-benzo[d][1,2,3]triazole-5-carbonyl)-hexahydro-lH-pyrrolo[3,4-c]pyridine-2(3H)-carboxylate] | 11
27 | O=C(OCc1cc(Cl)cc(Cl)c1)N1C[C@H]2CN(Cc3ccc4[nH]c(=O)oc4c3)C[C@H]2C1 [Example 6.03] | 531
28 | N#Cc1cc(Cl)cc(COC(=O)N2C[C@@H]3CN(C(=O)c4ccc5[nH]nnc5c4)C[C@@H]3C2)c1 [Example 4.24, (3aR,6aS)-3-chloro-5-cyanobenzyl 5-(1H-benzo[d][1,2,3]triazole-5-carbonyl)hexahydropyrrolo[3,4-c]pyrrole-2(1H)-carboxylate] | 56
29 | COc1ccc(OCC(=O)N2CC[C@@H]3CN(C(=O)c4ccc5[nH]nnc5c4)C[C@@H]3CC2)c(C(C)(C)C)c1 [Example 1.42, 1-[(3aS,8aR)-2-(1H-benzotriazole-5-carbonyl)-1,3,3a,4,5,7,8,8a-octahydropyrrolo[3,4-d]azepin-6-yl]-2-(2-tert-butyl-4-methoxyphenoxy)ethanone] | 7
30 | CS(=O)(=O)c1cc(Cl)cc(COC(=O)N2C[C@@H]3CN(C(=O)c4ccc5[nH]nnc5c4)CC[C@H]3C2)c1 [Example 4.09, (3aS,7aR)-5-(1H-benzotriazole-5-carbonyl)-octahydro-pyrrolo[3,4-c]pyridine-2-carboxylic acid 3-chloro-5-methanesulfonyl-benzyl ester] | 49
31 | O=C(OCc1ccc(OC(F)F)cc1)N1C[C@@H]2CN(C(=O)c3ccc4[nH]nnc4c3)C[C@H]2C1 [Example 4.41, (3aS,6aS)-5-(1H-benzotriazole-5-carbonyl)-hexahydro-pyrrolo[3,4-c]pyrrole-2-carboxylic acid 4-difluoromethoxy-benzyl ester] | 9
32 | O=C(OCc1ccc(OC(F)(F)F)cc1F)N1C[C@@H]2CN(C(=O)[C@@H]3CCc4[nH]nnc4C3)C[C@H]2C1 [Example 4.48, (3aS,6aS)-5-((R)-4,5,6,7-tetrahydro-1H-benzotriazole-5-carbonyl)-hexahydro-pyrrolo[3,4-c]pyrrole-2-carboxylic acid 2-fluoro-4-trifluoromethoxy-benzyl ester] | 3
